{"source": "patent US20250057770A1", "about": "“Monomethylfumarate Prodrug Compositions” (Alkermes Pharma Ireland Limited, priority 2015, published 2025)", "assay_type_in_all_cases": "in vivo, human", "key": {"[1]": {"test": "Single ascending dose study (Part 1): plasma MMF pharmacokinetics", "conditions": "oral dosing, 49 to 980 mg", "method": "(§1) A randomized, double-blind, placebo-controlled, sequential, single ascending dose study was conducted in healthy subjects to investigate the safety, tolerability and pharmacokinetics of capsules containing delayed release (DR) mini-tablets of Compound 1 from Example 2.1 (“Compound 1 DR capsules”). Up to 7 cohorts were included with 8 subjects in each cohort. In each cohort, 6 subjects received Compound 1 DR capsules and 2 subjects were treated with placebo in fasted condition. Compound 1 doses investigated were 49 mg (Cohort 1), 105 mg (Cohort 2), 210 mg (Cohort 3), 420 mg (Cohort 4), 630 mg (Cohort 5), 840 mg (Cohort 6), and 980 mg (Cohort 7) (all weights being mg of prodrug).\n(§2) Blood samples were collected from all subjects prior to dosing and at 0.25, 0.50, 1, 1.50, 2, 2.50, 3, 4, 6, 8, 10, 12, and 24 hours after dosing. Plasma obtained from blood samples were analyzed for Compound 1, MMF and another metabolite using validated LC-MS/MS method. The plasma concentration-time profiles were analyzed via Non-Compartmental analysis (NCA) using Phoenix WinNonLin, version 6.3."}, "[2]": {"test": "Phase I 2-period cross-over study (Part 2): safety and tolerability, adverse events", "conditions": "DMF 240 mg or Compound 1 DR 420 mg", "text": "(§3) (The DMF oral dosage form used in this study was […]®, (Biogen Idec, Inc Cambridge, MA, USA)). A total of 16 subjects were enrolled and randomized to a treatment sequence.\nEach dosing period was separated by a wash-out period of 7 days. […]"}, "[3]": {"test": "Phase I 2-period cross-over study (Part 2): plasma MMF pharmacokinetics", "conditions": "420 mg Compound 1 DR versus 240 mg DMF", "method": "as §3\nEach dosing period was separated by a wash-out period of 7 days.\nas §2"}, "[4]": {"test": "Single ascending dose study (Part 1): safety and tolerability, adverse events", "method": "as §1"}}, "note": "Several values for one entry are separate records, joined by “and”; a condition that tells them apart may be missing. Equal entries are not always repeated. Structures can show the parent of a compound that is named as a salt.", "data": [{"smiles": "COC(=O)/C=C/C(=O)OCCN1C(=O)CCC1=O", "note": "[Compound 1, 2-(2,5-dioxopyrrolidin-1-yl)ethyl methyl fumarate]", "values": [{"measurement": "conversion to metabolite MMF in plasma", "setting": "[1]", "value": "rapidly converted"}, {"measurement": "Subjects with Flushing", "setting": "[2]; N = 12", "value": "8 (66.7%) n (%)"}, {"measurement": "Subjects with Gastrointestinal disorders (SOC)", "setting": "[2]; N = 12", "value": "1 (8.3%) n (%)"}, {"measurement": "PK variability (% CV) compared to DMF treatment", "setting": "[3]", "value": "less PK variability"}, {"measurement": "PK variability (% CV) compared to DMF treatment", "setting": "[3]; listed as 2-(2,5-dioxopyrrolidin-1-yl)ethyl methyl fumarate", "value": "less variability"}, {"measurement": "Subjects with Abdominal discomfort", "setting": "[4]; 49 mg, N = 6", "value": "0 n (%)"}, {"measurement": "Subjects with Abdominal pain", "setting": "[4]; 49 mg, N = 6", "value": "0 n (%)"}, {"measurement": "Subjects with Diarrhoea", "setting": "[4]; 49 mg, N = 6", "value": "0 n (%)"}, {"measurement": "Subjects with Flatulence", "setting": "[4]; 49 mg, N = 6", "value": "0 n (%)"}, {"measurement": "Subjects with Flushing", "setting": "[4]; 49 mg, N = 6", "value": "1 (16.7) n (%)"}, {"measurement": "Subjects with Frequent bowel movements", "setting": "[4]; 49 mg, N = 6", "value": "1 (16.7) n (%)"}, {"measurement": "Subjects with Gastrointestinal disorders (SOC)", "setting": "[4]; 49 mg, N = 6", "value": "1 (16.7) n (%)"}, {"measurement": "Subjects with Nausea", "setting": "[4]; 49 mg, N = 6", "value": "0 n (%)"}, {"measurement": "Subjects with Vascular disorders (SOC)", "setting": "[4]; 49 mg, N = 6", "value": "1 (16.7) n (%)"}, {"measurement": "Subjects with Abdominal discomfort", "setting": "[4]; 105 mg, N = 6", "value": "0 n (%)"}, {"measurement": "Subjects with Abdominal pain", "setting": "[4]; 105 mg, N = 6", "value": "0 n (%)"}, {"measurement": "Subjects with Diarrhoea", "setting": "[4]; 105 mg, N = 6", "value": "0 n (%)"}, {"measurement": "Subjects with Flatulence", "setting": "[4]; 105 mg, N = 6", "value": "0 n (%)"}, {"measurement": "Subjects with Flushing", "setting": "[4]; 105 mg, N = 6", "value": "0 n (%)"}, {"measurement": "Subjects with Frequent bowel movements", "setting": "[4]; 105 mg, N = 6", "value": "0 n (%)"}, {"measurement": "Subjects with Gastrointestinal disorders (SOC)", "setting": "[4]; 105 mg, N = 6", "value": "0 n (%)"}, {"measurement": "Subjects with Nausea", "setting": "[4]; 105 mg, N = 6", "value": "0 n (%)"}, {"measurement": "Subjects with Vascular disorders (SOC)", "setting": "[4]; 105 mg, N = 6", "value": "0 n (%)"}, {"measurement": "Subjects with Abdominal discomfort", "setting": "[4]; 210 mg, N = 6", "value": "1 (16.7) n (%)"}, {"measurement": "Subjects with Abdominal pain", "setting": "[4]; 210 mg, N = 6", "value": "0 n (%)"}, {"measurement": "Subjects with Diarrhoea", "setting": "[4]; 210 mg, N = 6", "value": "0 n (%)"}, {"measurement": "Subjects with Flatulence", "setting": "[4]; 210 mg, N = 6", "value": "0 n (%)"}, {"measurement": "Subjects with Flushing", "setting": "[4]; 210 mg, N = 6", "value": "2 (33.3) n (%)"}, {"measurement": "Subjects with Frequent bowel movements", "setting": "[4]; 210 mg, N = 6", "value": "0 n (%)"}, {"measurement": "Subjects with Gastrointestinal disorders (SOC)", "setting": "[4]; 210 mg, N = 6", "value": "1 (16.7) n (%)"}, {"measurement": "Subjects with Nausea", "setting": "[4]; 210 mg, N = 6", "value": "0 n (%)"}, {"measurement": "Subjects with Vascular disorders (SOC)", "setting": "[4]; 210 mg, N = 6", "value": "2 (33.3) n (%)"}, {"measurement": "Subjects with Abdominal discomfort", "setting": "[4]; 420 mg, N = 6", "value": "0 n (%)"}, {"measurement": "Subjects with Abdominal pain", "setting": "[4]; 420 mg, N = 6", "value": "0 n (%)"}, {"measurement": "Subjects with Diarrhoea", "setting": "[4]; 420 mg, N = 6", "value": "0 n (%)"}, {"measurement": "Subjects with Flatulence", "setting": "[4]; 420 mg, N = 6", "value": "0 n (%)"}, {"measurement": "Subjects with Flushing", "setting": "[4]; 420 mg, N = 6", "value": "4 (66.7) n (%)"}, {"measurement": "Subjects with Frequent bowel movements", "setting": "[4]; 420 mg, N = 6", "value": "0 n (%)"}, {"measurement": "Subjects with Gastrointestinal disorders (SOC)", "setting": "[4]; 420 mg, N = 6", "value": "0 n (%)"}, {"measurement": "Subjects with Nausea", "setting": "[4]; 420 mg, N = 6", "value": "0 n (%)"}, {"measurement": "Subjects with Vascular disorders (SOC)", "setting": "[4]; 420 mg, N = 6", "value": "4 (66.7) n (%)"}, {"measurement": "Subjects with Abdominal discomfort", "setting": "[4]; 630 mg, N = 6", "value": "0 n (%)"}, {"measurement": "Subjects with Abdominal pain", "setting": "[4]; 630 mg, N = 6", "value": "0 n (%)"}, {"measurement": "Subjects with Diarrhoea", "setting": "[4]; 630 mg, N = 6", "value": "1 n (%)"}, {"measurement": "Subjects with Flatulence", "setting": "[4]; 630 mg, N = 6", "value": "0 n (%)"}, {"measurement": "Subjects with Flushing", "setting": "[4]; 630 mg, N = 6", "value": "6 n (%)"}, {"measurement": "Subjects with Frequent bowel movements", "setting": "[4]; 630 mg, N = 6", "value": "0 n (%)"}, {"measurement": "Subjects with Gastrointestinal disorders (SOC)", "setting": "[4]; 630 mg, N = 6", "value": "1 n (%)"}, {"measurement": "Subjects with Nausea", "setting": "[4]; 630 mg, N = 6", "value": "0 n (%)"}, {"measurement": "Subjects with Vascular disorders (SOC)", "setting": "[4]; 630 mg, N = 6", "value": "6 n (%)"}, {"measurement": "Subjects with Abdominal discomfort", "setting": "[4]; 840 mg, N = 6", "value": "0 n (%)"}, {"measurement": "Subjects with Abdominal pain", "setting": "[4]; 840 mg, N = 6", "value": "0 n (%)"}, {"measurement": "Subjects with Diarrhoea", "setting": "[4]; 840 mg, N = 6", "value": "1 (16.7) n (%)"}, {"measurement": "Subjects with Flatulence", "setting": "[4]; 840 mg, N = 6", "value": "2 (33.3) n (%)"}, {"measurement": "Subjects with Flushing", "setting": "[4]; 840 mg, N = 6", "value": "5 (83.3) n (%)"}, {"measurement": "Subjects with Frequent bowel movements", "setting": "[4]; 840 mg, N = 6", "value": "0 n (%)"}, {"measurement": "Subjects with Gastrointestinal disorders (SOC)", "setting": "[4]; 840 mg, N = 6", "value": "2 (33.3) n (%)"}, {"measurement": "Subjects with Nausea", "setting": "[4]; 840 mg, N = 6", "value": "0 n (%)"}, {"measurement": "Subjects with Vascular disorders (SOC)", "setting": "[4]; 840 mg, N = 6", "value": "5 (83.3) n (%)"}, {"measurement": "Subjects with Abdominal discomfort", "setting": "[4]; 980 mg, N = 6", "value": "1 n (%)"}, {"measurement": "Subjects with Abdominal pain", "setting": "[4]; 980 mg, N = 6", "value": "1 n (%)"}, {"measurement": "Subjects with Diarrhoea", "setting": "[4]; 980 mg, N = 6", "value": "2 n (%)"}, {"measurement": "Subjects with Flatulence", "setting": "[4]; 980 mg, N = 6", "value": "1 n (%)"}, {"measurement": "Subjects with Flushing", "setting": "[4]; 980 mg, N = 6", "value": "6 n (%)"}, {"measurement": "Subjects with Frequent bowel movements", "setting": "[4]; 980 mg, N = 6", "value": "0 n (%)"}, {"measurement": "Subjects with Gastrointestinal disorders (SOC)", "setting": "[4]; 980 mg, N = 6", "value": "4 n (%)"}, {"measurement": "Subjects with Nausea", "setting": "[4]; 980 mg, N = 6", "value": "2 n (%)"}, {"measurement": "Subjects with Vascular disorders (SOC)", "setting": "[4]; 980 mg, N = 6", "value": "6 n (%)"}, {"measurement": "tolerability during the trial", "setting": "[4]; 49 to 980 mg single doses", "value": "well tolerated"}, {"measurement": "Subjects with Flushing", "setting": "[4]; dose levels ≥420 mg", "value": "> 50", "unit": "%"}]}, {"smiles": "COC(=O)/C=C/C(=O)OC", "note": "[DMF, Dimethyl fumarate]", "values": [{"measurement": "mean onset of flushing", "setting": "[2]", "value": 1.2, "unit": "h"}, {"measurement": "Subjects with Constipation", "setting": "[2]; N = 12", "value": "0 n (%)"}, {"measurement": "Subjects with Diarrhoea", "setting": "[2]; N = 12", "value": "1 (8.3%) n (%) and 1 n (%)"}, {"measurement": "Subjects with Eructation", "setting": "[2]; N = 12", "value": "1 n (%)"}, {"measurement": "Subjects with Flatulence", "setting": "[2]; N = 12", "value": "1 n (%)"}, {"measurement": "Subjects with Flushing", "setting": "[2]; N = 12", "value": "8 (66.7%) n (%) and 8 n (%)"}, {"measurement": "Subjects with Gastrointestinal disorders (SOC)", "setting": "[2]; N = 12", "value": "5 (41.7%) n (%) and 5 n (%)"}, {"measurement": "Subjects with Nausea", "setting": "[2]; N = 12", "value": "3 (25%) n (%) and 3 n (%)"}, {"measurement": "Subjects with Retching", "setting": "[2]; N = 12", "value": "1 (8.3%) n (%) and 1 n (%)"}, {"measurement": "Subjects with Vascular disorders (SOC)", "setting": "[2]; N = 12", "value": "8 n (%)"}]}]}
